Results published in ChEMBL document CHEMBL1129361, “Modulators of leukotriene biosynthesis and receptor activation” (J Med Chem, 1996).
Each block holds one compound with its values, some of them ahead of it. Activity calls are given as the source filed them. The rule behind the calls is not given here.

Experiments:
[1] = biological target: T1, Cysteinyl leukotriene receptor (Homo sapiens, UniProt Q9Y271+Q9NS75); test: Binding affinity against Cysteinyl leukotriene D4 receptor; type: protein assay
T1 sequence (Q9Y271 whole entry): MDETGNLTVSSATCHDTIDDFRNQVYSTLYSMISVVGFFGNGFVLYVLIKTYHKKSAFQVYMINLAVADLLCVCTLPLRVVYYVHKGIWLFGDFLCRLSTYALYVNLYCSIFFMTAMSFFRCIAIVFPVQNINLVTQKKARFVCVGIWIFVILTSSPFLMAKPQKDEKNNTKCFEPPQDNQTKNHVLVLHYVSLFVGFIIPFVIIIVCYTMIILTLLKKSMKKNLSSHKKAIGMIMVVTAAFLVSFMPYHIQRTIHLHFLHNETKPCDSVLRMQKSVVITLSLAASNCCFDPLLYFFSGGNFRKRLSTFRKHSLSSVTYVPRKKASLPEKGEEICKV
T1 sequence (Q9NS75 whole entry): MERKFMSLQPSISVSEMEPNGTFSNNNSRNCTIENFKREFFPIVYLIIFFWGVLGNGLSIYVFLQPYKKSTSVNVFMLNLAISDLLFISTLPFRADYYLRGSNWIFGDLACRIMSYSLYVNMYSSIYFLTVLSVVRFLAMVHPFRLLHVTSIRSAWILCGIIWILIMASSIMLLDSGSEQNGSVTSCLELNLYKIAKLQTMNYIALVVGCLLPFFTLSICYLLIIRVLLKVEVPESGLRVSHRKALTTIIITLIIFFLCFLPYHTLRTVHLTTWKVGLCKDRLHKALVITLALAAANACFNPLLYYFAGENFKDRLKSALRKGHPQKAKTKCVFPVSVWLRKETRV

[2] = tested on: Homo sapiens; test: Compound was tested for inhibition of LTD4 bronchoconstriction following 4 mg/kg oral dose; active; type: functional, organism-based; parameters: dose 4 mg/kg; conditions: Lung
[3] = species on record: Cavia porcellus; test: Compound was tested for LTD4 induced guinea pig trachea contraction; type: functional
[4] = tested on: Monkey; test: Compound was tested for in vivo inhibition against squirrel monkey antigen bronchospasm at 1 mg/kg; type: functional; conditions: Bronchiole, in Primates
[5] = Inhibitory activity against LT biosynthesis; […]; type: functional
[6] = tested on: Rattus norvegicus; test: Compound was tested for in vivo inhibition against rat antigen bronchospasm; type: functional
[7] = tested on: Rattus norvegicus; test: Compound was tested for in vivo inhibition against rat ionophore LTB4 formation; type: functional
[8] = species on record: Homo sapiens; test: Compound was tested in vitro inhibitory activity against human neutrophil CD11b/CD18.; type: functional
[9] = tested on: Homo sapiens; test: Compound was shown 8 fold shift in LTD4 dose response curve 2 hours after 250 mg oral dose.; type: functional
[10] = species on record: Cavia porcellus; test: Compound was tested for LTD4 induced guinea pig trachea contraction.; type: functional
[11] = phase 1 oral half life at a dose 400 mg.; type: ADME, organism-based; conditions: human, in vivo
[12] = tested on: Rattus norvegicus; test: Compound was tested for in vivo inhibition on rat PMNL.; type: functional
[13] = species on record: Homo sapiens; test: Compound was tested for in vitro inhibition on human PMNL.; type: functional
[14] = tested on: Cavia porcellus; test: Compound was tested for in vivo inhibition on gp antigen bronchospasm.; type: functional; conditions: Bronchiole
[15] = biological target: Phosphodiesterase 4 (Homo sapiens, UniProt P27815+Q08499+Q07343+Q08493); test: Inhibition of Phosphodiesterase 4; type: protein assay
[16] = species on record: Rattus norvegicus; test: Compound was tested for in vitro inhibition against rat blood; type: functional
[17] = biological target: Phosphodiesterase 3 (Homo sapiens, UniProt Q14432+Q13370); test: Inhibition of Phosphodiesterase 3; type: protein assay
[18] = species on record: Homo sapiens; test: Compound was tested for in vitro inhibition against human PMNL; type: functional
[19] = species on record: Cavia porcellus; test: Compound was tested for in vitro inhibition against broken guinea pig peritoneal exudate cells; type: functional
[20] = tested on: RBL-2H3; test: Compound was tested for in vitro inhibition against 5-LO translocation in rat basophilic leukemia cells (RBL-2H3); type: functional, cell-based
[21] = tested on: Cavia porcellus; test: Compound was tested for in vivo inhibition against antigen bronchospasm; type: functional; conditions: Bronchiole
[22] = species on record: Mus musculus; test: Compound was tested for in vitro inhibition against murine macrophage; type: functional
[23] = species on record: Homo sapiens; test: Compound was tested in vitro for inhibitory activity in LTB4 induced neutrophil degranulation.; type: functional, organism-based
[24] = biological target: Leukotriene B4 receptor 1 (Homo sapiens, UniProt Q15722); test: Compound was tested for inhibitory activity against human neutrophil LTB4 receptor binding
[25] = species on record: Homo sapiens; test: Compound was tested in vitro for inhibitory activity in LTB4 induced chemotaxis; type: functional, organism-based
[26] = tested on: Cavia porcellus; test: Compound was tested in vivo for LTB4 induced neutrophil chemotaxis in guinea pig.(orally) at duration 21 h; type: functional; conditions: po
[27] = species on record: Homo sapiens; test: Compound was tested in vitro for inhibitory activity in LTB4 induced neutrophil degranulation; type: functional
[28] = tested on: Cavia porcellus; test: compound was tested in vivo for LTB4 induced neutrophil chemotaxis in guinea pig(orally) at duration 24 h; type: functional; conditions: po
[29] = tested on: Cavia porcellus; test: Compound was tested in vivo inhibitory activity against PMA induced ear edema in guinea pig (orally); type: functional; conditions: po
[30] = species on record: Homo sapiens; test: Compound was tested in vitro inhibitory activity against human neutrophil degranulation.; type: functional
[31] = tested on: Cavia porcellus; test: Compound was tested in vivo inhibitory activity against LTB4 induced neutrophil influx in guinea pig(orally); type: functional; conditions: po
[32] = tested on: Cavia porcellus; test: Compound was tested in vivo inhibitory activity against LTB4 induced neutropenia in guinea pig.(orally); type: functional; conditions: po
[33] = tested on: Cavia porcellus; test: Compound was tested in vivo inhibitory activity against AA induced ear edema; type: functional
[34] = tested on: Mus musculus; test: Compound was tested in vivo inhibitory activity against LTB4 induced mouse peritonitis (orally); type: functional; conditions: po
[35] = species on record: Homo sapiens; test: Compound was tested in vitro inhibitory activity against […] induced Ca mobilization.; type: functional, organism-based
[36] = tested on: Homo sapiens; test: Shift in LTB-4 dose response curve for CD11b upregulation in normal volunteers; type: functional
[37] = tested on: Cavia porcellus; test: Compound was tested in vivo inhibitory activity against LTB4 induced neutrophil cutaneous influx in guinea pig; type: functional
[38] = tested on: Mus musculus; test: Compound was tested in vivo inhibitory activity against LTB4 induced neutrophil cutaneous influx in mouse.; type: functional
[39] = species on record: Homo sapiens; test: Compound was tested in vitro inhibitory activity against […] induced chemotaxis of human neutrophil; type: functional
[40] = tested on: Cavia porcellus; test: Compound was tested in vivo inhibitory activity to block 12 (R)-HETE skin inflammation (peroral administration) at 3 mg/kg; type: functional; conditions: route oral
[41] = biological target: T2, Cysteinyl leukotriene receptor 1 (Homo sapiens, UniProt Q9Y271); test: Compound were tested for inhibitory activity against Cysteinyl leukotriene D4 receptor
T2 sequence (Q9Y271 whole entry): T1 sequence (Q9Y271 whole entry)

[42] = tested on: Homo sapiens; test: Fold shift in LTD4 dose response curve following 280 mg intravenous dose in asthmatic patients.; type: functional

Chain of Leukotriene B4 receptor 1 (Q15722 whole entry): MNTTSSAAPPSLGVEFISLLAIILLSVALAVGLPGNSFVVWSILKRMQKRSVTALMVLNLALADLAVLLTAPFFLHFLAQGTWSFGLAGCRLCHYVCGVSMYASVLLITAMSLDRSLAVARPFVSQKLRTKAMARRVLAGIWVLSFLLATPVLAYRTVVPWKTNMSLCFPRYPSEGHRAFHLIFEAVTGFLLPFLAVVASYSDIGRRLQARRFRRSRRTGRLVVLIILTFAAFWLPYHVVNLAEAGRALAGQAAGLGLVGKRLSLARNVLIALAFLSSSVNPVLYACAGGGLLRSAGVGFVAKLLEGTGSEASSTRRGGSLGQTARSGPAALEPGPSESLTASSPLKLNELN

Ki [1]: 60 nM
SMILES: O=C(O)CCS[C@@H](CC(=O)O)c1ccccc1CCCCCCCCc1ccccc1
Activity [2]: Active

half-life [11]: 2 h
IC50 [13]: 40 nM
SMILES: CC(=O)N(O)C/C=C/c1cccc(Oc2ccccc2)c1
ED50 [12]: 54 mg/kg
ED50 [14]: 10 mg/kg

IC50 [30]: 1600 nM
SMILES: COc1ccc(/C=C/CCCCOc2cccc(OCCCCC(=O)O)c2CCC(=O)O)cc1
ED50 [31]: 5.3 mg/kg
ED50 [32]: 25.6 mg/kg

IC50 [41]: 3.1 nM
SMILES: CN(C)C(=O)CCS[C@H](SCCC(=O)[O-])c1cccc(/C=C/c2ccc3ccc(Cl)cc3n2)c1.[Na+]
pKB [3]: 8.8

Ki [1]: 0.2 nM
SMILES: CN(C)C(=O)CCSC(SCCC(=O)[O-])c1cccc(/C=C/c2ccc3ccc(Cl)cc3n2)c1.[Na+] (stereo not drawn)
Activity [42]: >83

The remaining lines, values behind:

SMILES: CCCCCCCCC/C=C\C=C\[C@@H](SCCC(=O)O)[C@@H](O)c1cccc(-c2nnn[nH]2)c1
Kb ([3]; read-out: pA2 (converted)): 5.01 nM

SMILES: CC(C)c1ccc2c(c1)c(SC(C)(C)C)c(CC(C)(C)C(=O)O)n2Cc1ccc(Cl)cc1
inhibition in vivo at 1 mg/kg [4]: 85%
IC50 [5]: 5 nM
ED50 [6]: 0.036 mg/kg
ED50 [7]: 0.2 mg/kg

SMILES: CCc1cc(-c2ccc(F)cc2)c(O)cc1OCCCOc1ccc2c(=O)c3cc(C(=O)O)ccc3oc2c1CCC(=O)O
IC50 [8]: 1.2 nM

SMILES: O=C(O)CC[C@@H](/C=C\Cc1ccc(OCCCCOc2ccccc2)cc1)Sc1ccc(C(=O)O)cc1
Activity [9]: 8
pKB [10]: 8.4

SMILES: C[C@H](C(=O)O)c1ccc2ccc(OCc3ccc4ccccc4n3)cc2c1.NC(CO)(CO)CO
IC50 [15]: 8900 nM
IC50 [16]: 8100 nM
IC50 [17]: 15800 nM
IC50 [18]: 1200 nM
IC50 [19]: 5700 nM
IC50 [20]: 53 nM
ED50 [21]: 7.3 mg/kg
IC50 [22]: 160 nM

SMILES: CCCc1c(OCCCC/C=C\C=C\[C@H](Sc2ccc3c(=O)cc(C(=O)[O-])oc3c2)[C@H](O)c2cccc(C(F)(F)F)c2)ccc(C(C)=O)c1O.[Na+]
Ki [1]: 26 nM

SMILES: CCCc1c(OCCCOc2ccc(C(=O)NC)c(OC)c2CC2CC2)ccc2c1OC(CCC(=O)O)CC2 (stereo not drawn)
IC50 [23]: 29 nM
IC50 [24]: 1.5 nM
IC50 [25]: 38 nM
ED50 [26]: 0.09 mg/kg

SMILES: CCCc1c(OCCCOc2ccc(C(=O)NC)c(OC)c2CC2CC2)ccc2c1O[C@H](CCC(=O)O)CC2
IC50 [24]: 1.3 nM
IC50 [25]: 32 nM
IC50 [27]: 19 nM
ED50 [28]: 0.07 mg/kg
ED50 [29]: < 2.5 mg/kg

SMILES: COc1ccc(CCCCCCCCOc2ccc(CSCc3cccc(C(=O)O)c3)nc2/C=C/C(=O)O)cc1
ED50 [33]: 0.58 mg ear-1
ED50 [34]: 7.1 mg/kg

SMILES: O=C(O)C1(c2ccc3c(c2)OC[C@H](Cc2ccc(-c4ccccc4)cc2)[C@H]3O)CCCC1
Kb ([8]; read-out: pA2 (converted)): 10 nM
IC50 [35]: 940 nM
Activity [36]: 10
ED50 [37]: 0.3 mg/kg
ED50 [38]: 4.2 mg/kg
IC50 [39]: 5 nM
inhibition in vivo at 3 mg/kg [40]: 75%
